As usually defined, the inhibition is the relative decrease from the control value, in per cent. The EC50 is the concentration needed to bring the measured effect to its halfway point. High values mean a need for much substance, low ones an effect from little substance.

Assay [1] has as its system human gammaherpesvirus 4. Kind of assay: Inhibition of TPA-induced EBV early antigen activation at 32 uM.
Assay [2] has as its system human gammaherpesvirus 4. As to the kind of experiment: Inhibition of TPA-induced EBV early antigen activation at 16 uM.
Assay [3] deals with human gammaherpesvirus 4. As to the kind of experiment: Inhibition of TPA-induced EBV early antigen activation at 3.2 uM.
Assay [4] has as its system human gammaherpesvirus 4. As to the kind of experiment: Inhibition of TPA-induced EBV early antigen activation at 0.32 uM.
Another assay deals with KB. As to the kind of experiment: Cytotoxicity against human KB cells. It is filed as functional, cell-based.
Assay [5] addresses T1, Aromatase (Homo sapiens, UniProt P11511).
T1 sequence (P11511 whole entry): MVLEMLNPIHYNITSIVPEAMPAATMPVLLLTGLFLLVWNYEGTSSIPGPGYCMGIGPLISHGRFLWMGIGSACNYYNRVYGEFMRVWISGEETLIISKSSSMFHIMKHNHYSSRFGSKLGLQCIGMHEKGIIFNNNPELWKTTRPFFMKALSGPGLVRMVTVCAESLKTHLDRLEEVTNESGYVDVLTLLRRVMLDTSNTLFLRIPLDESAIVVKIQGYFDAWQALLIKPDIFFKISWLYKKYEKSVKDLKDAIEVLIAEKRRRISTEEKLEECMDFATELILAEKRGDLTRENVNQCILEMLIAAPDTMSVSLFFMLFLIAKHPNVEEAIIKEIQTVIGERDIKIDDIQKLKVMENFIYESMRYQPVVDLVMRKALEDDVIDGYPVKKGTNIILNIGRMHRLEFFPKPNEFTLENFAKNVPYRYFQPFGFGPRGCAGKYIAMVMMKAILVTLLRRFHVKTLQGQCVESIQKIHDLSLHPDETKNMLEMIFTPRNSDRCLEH
As to the kind of experiment: Inhibition of human recombinant aromatase at 0.6 uM.

Assay [6] has as its target T1, Aromatase. As to the kind of experiment: Inhibition of human recombinant aromatase at 10 uM.
Assay [7] has as its target T1, Aromatase. Kind of assay: Inhibition of human recombinant aromatase at 3 uM.
Assay [8] deals with T1, Aromatase. As to the kind of experiment: Inhibition of human recombinant aromatase at 0.3 uM.
Assay [9] deals with T1, Aromatase. Kind of assay: Inhibition of human recombinant aromatase at 1 uM.

Molecules are shown by their SMILES.

With `CC(C)c1cc(C=O)c2c(c1O)[C@H](O)[C@H]1C(C)(C)CCC[C@]21C`, the inhibition in the assay with human gammaherpesvirus 4 [1] was found to be 85.9%; with human gammaherpesvirus 4 [2], 32%; in the assay with human gammaherpesvirus 4 [3], 16.7%; with human gammaherpesvirus 4 [4] it was 0%.
With `CC1=C(/C=C/C(C)=C/C=C/C(C)=C/C=C/C=C(C)/C=C/C=C(C)/C=C/C2=C(C)CCCC2(C)C)C(C)(C)CCC1`, the inhibition is 91% in the assay with human gammaherpesvirus 4 [1], 66% in the assay on human gammaherpesvirus 4 [2], 18% with human gammaherpesvirus 4 [3] and 0% in the assay with human gammaherpesvirus 4 [4].
With `CC[C@@H](C)CC[C@H]1[C@@H](C)CC[C@H]2C(C)(C)CCC[C@]12C`, the inhibition in the assay with human gammaherpesvirus 4 [1] amounted to 92.3%; in the assay on human gammaherpesvirus 4 [2], 51.9%; with human gammaherpesvirus 4 [3], 22.2%; in the assay with human gammaherpesvirus 4 [4] it was 4.5%.
As for `COc1cc([C@@H]2c3cc4c(cc3[C@@H](O[C@@H]3O[C@@H]5CO[C@@H](C)O[C@H]5[C@H](O)[C@H]3O)[C@H]3COC(=O)[C@H]23)OCO4)cc(OC)c1O` [ETOPOSIDE], the EC50 with KB is 1.1 µM.
As to `C[C@]12CCC(=O)C(O)=C1CC[C@@H]1[C@@H]2CC[C@]2(C)C(=O)CC[C@@H]12` [FORMESTANE], the inhibition at 0.6 µM on Aromatase [5] worked out at 63.7%.
With `CC(=O)N1CCN(c2ccc(OCC3COC(Cn4ccnc4)(c4ccc(Cl)cc4Cl)O3)cc2)CC1` (configuration not stated) [KETOCONAZOLE], the inhibition at 10 µM on Aromatase [6] stood at 92.5%. Also, the inhibition at 3 µM at Aromatase [7] turned out to be 83.8%. Further, the inhibition at 0.3 µM at Aromatase [8] turned out to be 89.3%.
As for `N#Cc1ccc(C(c2ccc(C#N)cc2)n2cncn2)cc1` [LETROZOLE], the inhibition at 10 µM at Aromatase [6] stood at 87.9%. For the same compound, the inhibition at 3 µM at Aromatase [7] turned out to be 87.5%. Also, on Aromatase [8], the inhibition at 0.3 µM came to 81.7%.
`CC(=O)Oc1c(C(C)C)cc(C=O)c2c1[C@H](OC(C)=O)[C@H]1C(C)(C)CCC[C@]21C` [STANDISHINAL DIACETATE]: the inhibition at 1 µM at Aromatase [9] turned out to be 38.6%. For the same compound, the inhibition in the assay on human gammaherpesvirus 4 [1] stood at 84.5%; in the assay with human gammaherpesvirus 4 [2], 30.5%; in the assay with human gammaherpesvirus 4 [3], 11.1%; in the assay with human gammaherpesvirus 4 [4] it was 0%.
The compound `CC(C)c1c(O)c2c(c3c1OCO3)[C@@]1(C)CCCC(C)(C)[C@@H]1[C@H]2C=O` [TAIWANIAQUINOL A] returned an EC50 in the assay with KB of 8.3 µM.
Take `COc1c(O)c2c(c(O)c1C(C)C)C(=O)[C@@H]1C(C)(C)CCC[C@]21C` [TAIWANIAQUINOL B]: the EC50 in the assay on KB was above 10 µM.
The same measure, in the same setting: with `COc1c(O)c2c(c(O)c1C(C)C)[C@@H](C=O)[C@H]1C(C)(C)CCC[C@]21C` [TAIWANIAQUINOL C] the figure was 8.1 µM; with `COc1c(O)c2c(c(O)c1C(C)C)C(C=O)=C1C(C)(C)CCC[C@@]12C` [TAIWANIAQUINOL D], 3.5 µM.
On the same count and under the same terms, with `COc1c(O)c2c(c(O)c1C(C)C)C(=O)[C@H]1C(C)(C)CCC[C@]21C` [TAIWANIAQUINOL E] the figure was above 10 µM.
The same measure, in the same setting: with `COc1c(O)c2c(c(O)c1C(C)C)C(=O)[C@@H]1C(C)(C)C(=O)CC[C@]21C` [TAIWANIAQUINOL F] the figure was above 10 µM.
The compound `CC(C)C1=C(O)C(=O)C2=C(C1=O)C(C=O)=C1C(C)(C)CCC[C@]21C` [TAIWANIAQUINONE D] had an EC50 with KB of 7.2 µM.
Still for that read-out and setting: with `COC1=C(C(C)C)C(=O)C2=C(C1=O)[C@@]1(C)CCCC(C)(C)[C@@H]1C2` [TAIWANIAQUINONE G] the figure was above 10 µM; with `COC1=C(C(C)C)C(=O)C2=C(C1=O)[C@@]1(C)CCCC(C)(C)C1=C2` [TAIWANIAQUINONE H], above 10 µM.
Same read-out and setting: with `COC1=C(C(C)C)C(=O)C2=C(C1=O)[C@@]1(C)CCCC(C)(C)[C@@H]1[C@H]2C=O` [TAIWANIAQUINONE] the figure was 4.4 µM; with `CC(C)C1=C(O)C(=O)C2=C(C1=O)[C@H](C=O)[C@H]1C(C)(C)CCC[C@]21C` [TAIWANIQUINONE A], 6.9 µM; with `COC(=O)[C@H]1C2=C(C(=O)C(O)=C(C(C)C)C2=O)[C@@]2(C)CCCC(C)(C)[C@H]12` [TAIWANIQUINONE E], above 10 µM.

The values are drawn from ChEMBL document CHEMBL1154905, “The taiwaniaquinoids: a review” (J Nat Prod, 2010).
